Measurements reported in patent publication US4537777A, “A52688 Antibiotics and process for their production” (priority 1983, dated 1985).
Where two headings read alike, the source gives them in different places.

Experiments:
[1] = system: Staphylococcus aureus; assay: standard disc-plate assay; type: cell-based; details: read-out: Zone Diameters
[2] = system: Bacillus subtilis; assay: standard disc-plate assay; type: cell-based; details: read-out: Zone Diameters
[3] = system: Micrococcus luteus; assay: standard disc-plate assay; type: cell-based; details: read-out: Zone Diameters
[4] = system: Mycobacterium avium; assay: standard disc-plate assay; type: cell-based; details: read-out: Zone Diameters
[5] = system: Saccharomyces pastorianus; assay: standard disc-plate assay; type: cell-based; details: read-out: Zone Diameters
[6] = system: Neurospora crassa; assay: standard disc-plate assay; type: cell-based; details: read-out: Zone Diameters
[7] = system: Candida albicans; assay: standard disc-plate assay; type: cell-based; details: read-out: Zone Diameters
[8] = system: Trichophyton mentagroprophytes; assay: standard disc-plate assay; type: cell-based; details: read-out: Zone Diameters
[9] = system: Proteus vulgaris; assay: standard disc-plate assay; type: cell-based; details: read-out: Zone Diameters
[10] = system: Salmonella gallinarium; assay: standard disc-plate assay; type: cell-based; details: read-out: Zone Diameters
[11] = system: Escherichia coli; assay: standard disc-plate assay; type: cell-based
Procedure: In Table IX the standard discplate-assay activity of the A52688 factors is summarized. Activity is measured as the diameter (in mm) of the observed zone of inhibition; the diameter of the disc used in each case was 6.35 mm.

[12] = system: Pseudomonas aeruginosa; assay: standard disc-plate assay; type: cell-based; details: read-out: Zone Diameters
[13] = system: Serratia marcescens; assay: standard disc-plate assay; type: cell-based; details: read-out: Zone Diameters
[14] = system: Pseudomonas solanacearum; assay: microbe, parasite or virus in culture; type: cell-based; details: Ralstonia solanacearum; conc 0.1 mg/ml; read-out: Zone Diameters
[15] = system: Bacillus stereothermophilus; assay: standard disc-plate assay; type: cell-based; details: read-out: Zone Diameters
[16] = system: Adenocarcinoma 755; assay: murine-transplanted tumor adenocarcinoma 755 in mice; type: in vivo; details: for Percent Tumor Inhibition / Toxic Deaths: daily for 10 days
Procedure: (§1) A52688 factors A, C, D, E, F, G, H, J and K and the specified acyl esters of factors A, C, D, E, G, H, J and K are especially useful as oncolytic agents.
Table X summarizes the results of experiments in which mice bearing the murine-transplanted tumor adenocarcinoma 755 were treated with compounds of this invention. In each test the compound was administered by the intraperitoneal route at specified dose levels. The compound was administered over a ten-day period, either on a daily basis or on days one, five and nine, as indicated.

[17] = acute toxicity in mice; details: mouse, in vivo, formulated in aqueous PVP
From the text: ^a Compounds formulated in aqueous PVP
^b Route test compound administered

[18] = system: Lewis lung tumor; assay: tumor growth test in mice; type: in vivo; details: tests in mice
From the text: as §1

[19] = system: lymphosarcoma 6L3 HED; assay: tumor growth test in mice; type: in vivo; details: tests in mice
From the text: as §1

[20] = system: ovarian M-5 tumor; assay: tumor growth test in mice; type: in vivo; details: tests in mice
From the text: as §1

[21] = system: plasma cell myeloma X-5563; assay: tumor growth test in mice; type: in vivo; details: tests in mice
From the text: as §1

[22] = system: solid leukemia P1534J; assay: tumor growth test in mice; type: in vivo; details: tests in mice
From the text: as §1

[23] = moisture absorption; type: physicochemical
[24] = read-out: Zone Diameters, in minimal medium, conc 0.1 mg/ml, disc 6.35 mm

Structure (SMILES) | zone of inhibition at 100 µg/mL [1] [mm] | zone of inhibition at 100 µg/mL [2] [mm] | zone of inhibition at 100 µg/mL [3] [mm] | zone of inhibition at 100 µg/mL [4] [mm] | zone of inhibition at 100 µg/mL [5] [mm] | zone of inhibition at 100 µg/mL [6] [mm] | zone of inhibition at 100 µg/mL [7] [mm] | zone of inhibition at 100 µg/mL [8] [mm] | zone of inhibition at 100 µg/mL [9] [mm] | zone of inhibition at 100 µg/mL [10] [mm] | zone of inhibition at 100 µg/mL [11, 24] [mm] | zone of inhibition at 100 µg/mL [12] [mm] | zone of inhibition at 100 µg/mL [13] [mm] | zone of inhibition at 100 µg/mL [14] [mm] | zone of inhibition at 100 µg/mL [15] [mm] | also measured
[C-]#[N+]C(=CC1=C[C@@H](O)[C@H](O)CC1)C(=CC1CCC(OC(=O)C=C(C)C)CC1)[N+]#[C-] (relative stereo) [Factor A] | 26 | 30 | 36 | 14 | 20 | 39 | 33 | 45 | 24 | 21 | 20 | 23 | 20 | 26 | 35 | zone of inhibition at 100 µg/mL ([11]; read-out: Zone Diameters, conc 0.1 mg/ml, disc 6.35 mm): 24 mm; Percent Tumor Inhibition ([16]; 0.25 mg/kg i.p.): 3%; Toxic Deaths ([16]; 0.25 mg/kg i.p., of 10 mice tested (9 for factor E)): 0; Percent Tumor Inhibition ([16]; 0.30 mg/kg i.p.): 55%; Toxic Deaths ([16]; 0.30 mg/kg i.p., of 10 mice tested): 1; Percent Tumor Inhibition ([16]; 0.35 mg/kg i.p.): 69%; Toxic Deaths ([16]; 0.35 mg/kg i.p., of 10 mice tested): 1; Percent Tumor Inhibition ([16]; 0.40 mg/kg i.p.): 91%; Toxic Deaths ([16]; 0.40 mg/kg i.p., of 9 mice tested): 6; growth of tumor ([16]; tests in mice): inhibited the growth; LD50 ([17]; ip, intraperitoneal, read-out: Intraperitoneal LD50): 3.12 mg/kg; LD50 ([17]; oral, read-out: Oral LD50): 8.84 mg/kg; growth of tumor [18]: inhibited the growth; growth of tumor [19]: inhibited the growth; growth of tumor [20]: inhibited the growth; growth of tumor [21]: inhibited the growth; growth of tumor [22]: inhibited the growth
[C-]#[N+]C(=CC1CCC(OC(=O)CC(C)C)CC1)C(=CC1(OC(C)=O)C=CC(O)CC1)[N+]#[C-] (stereo not drawn) [Factor K] | 25 | 18 | 29 | 11 | 20 | 37 | 20 | 32 | 19 | 17 | 11 | 11 | 11 | 19 | 25 | moisture absorption [23]: absorbs moisture readily
